Laboratory results published in patent US9169254B2, “Spiroimidazolone derivative” (Chugai Seiyaku Kabushiki Kaisha, priority 2009, dated 2015).

molecular target: T1, human PTH1 receptor (Homo sapiens, UniProt Q03431); experiment: In vitro cAMP signal activity in HKRK-B7 cells (LLC-PK1 cells overexpressing the human PTH1 receptor); assay type: cell-based; details: HKRK-B7 cells; compound at 1×10^−3 M; […]; 0.1 µM
T1 sequence (Q03431 27-593): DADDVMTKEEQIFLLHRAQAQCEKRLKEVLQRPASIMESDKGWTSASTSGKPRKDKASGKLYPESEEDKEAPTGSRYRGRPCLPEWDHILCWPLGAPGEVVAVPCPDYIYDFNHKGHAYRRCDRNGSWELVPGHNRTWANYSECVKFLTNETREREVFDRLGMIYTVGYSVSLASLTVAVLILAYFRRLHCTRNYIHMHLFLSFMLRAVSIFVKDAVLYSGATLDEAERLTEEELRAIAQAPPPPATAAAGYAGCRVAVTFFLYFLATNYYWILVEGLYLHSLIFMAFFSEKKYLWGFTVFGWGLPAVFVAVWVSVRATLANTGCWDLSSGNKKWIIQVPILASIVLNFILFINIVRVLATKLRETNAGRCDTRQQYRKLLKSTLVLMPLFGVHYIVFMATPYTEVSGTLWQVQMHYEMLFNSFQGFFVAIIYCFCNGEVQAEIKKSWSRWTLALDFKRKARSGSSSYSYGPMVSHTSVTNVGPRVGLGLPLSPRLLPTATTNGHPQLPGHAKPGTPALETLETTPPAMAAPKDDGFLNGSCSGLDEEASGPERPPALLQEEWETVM

With `Cc1cc(C(=O)N2CCC(=O)CC2)cc(C)c1/C=C/S(=O)(=O)N1CCC2(CC1)N=C(c1ccc(F)c(C(F)(F)F)c1)NC2=O` [Compound 972, 8-{(E)-2-[2,6-dimethyl-4-(4-oxo-piperidine-1-carbonyl)-phenyl]-ethenesulfonyl}-2-(4-fluoro-3-trifluoromethyl-phenyl)-1,3,8-triaza-spiro[4.5]dec-1-en-4-one] the “cAMP production activity (%)” value was 89%.

same assay, conditions: HKRK-B7 cells; compound at 1×10^−3 M; cAMP produced as percentage of that produced by hPTH(1-34) at 100 nM

Compared with `Cc1cc(N2C(=O)CC[C@@H]2CO)ccc1/C=C/S(=O)(=O)N1CCC2(CC1)N=C(c1ccc(F)c(C(F)(F)F)c1)NC2=O` [Compound 620, 2-(4-fluoro-3-trifluoromethyl-phenyl)-8-{(E)-2-[4-((R)-2-hydroxymethyl-5-oxo-pyrrolidin-1-yl)-2-methyl-phenyl]-ethenesulfonyl}-1,3,8-triaza-spiro[4.5]dec-1-en-4-one], `Cc1cc(S(N)(=O)=O)ccc1/C=C/S(=O)(=O)N1CCC2(CC1)N=C(c1cccc(C(F)(F)F)c1)NC2=O` [Compound 213, 3-methyl-4-{(E)-2-[4-oxo-2-(3-trifluoromethyl-phenyl)-1,3,8-triaza-spiro[4.5]dec-1-ene-8-sulfonyl]-vinyl}-benzenesulfonamide] is lower in “cAMP production activity (%)” value: 112% for the first, 74% for the second.

Compared with `Cc1cc(OCCOC[C@H](O)CO)cc(C)c1/C=C/S(=O)(=O)N1CCC2(CC1)N=C(C1CCC(CCC(F)(F)F)CC1)NC2=O` (stereo partly drawn) [Compound 698, 8-((E)-2-{4-[2-((R)-2,3-dihydroxy-propoxy)-ethoxy]-2,6-dimethyl-phenyl}-ethenesulfonyl)-2-[4-(3,3,3-trifluoro-propyl)-cyclohexyl]-1,3,8-triaza-spiro[4.5]dec-1-en-4-one], `Cc1cc(C(=O)N2CCN(CCF)CC2)cc(C)c1CCS(=O)(=O)N1CCC2(CC1)N=C(C1CCC(CCC(F)(F)F)CC1)NC2=O` (stereo not drawn) [Compound 761, 8-(2-{4-[4-(2-fluoro-ethyl)-piperazine-1-carbonyl]-2,6-dimethyl-phenyl}-ethanesulfonyl)-2-[4-(3,3,3-trifluoro-propyl)-cyclohexyl]-1,3,8-triaza-spiro[4.5]dec-1-en-4-one] is higher in “cAMP production activity (%)” value: 62% for the first, 104% for the second.

First: CCCCCCCCCC1=NC2(CCN(S(=O)(=O)/C=C/c3c(C)cc(N(CCO)C(C)=O)cc3C)CC2)C(=O)N1 [Compound 701, N-{3,5-dimethyl-4-[(E)-2-(2-nonyl-4-oxo-1,3,8-triaza-spiro[4.5]dec-1-ene-8-sulfonyl)-vinyl]-phenyl}-N-(2-hydroxy-ethyl)-acetamide]
Second: CCCCCCCCCC1=NC2(CCN(S(=O)(=O)/C=C/c3ccc(N(CCOCCO)C(C)=O)cc3C)CC2)C(=O)N1 [Compound 700, N-[2-(2-Hydroxy-ethoxy)-ethyl]-N-{3-methyl-4-[(E)-2-(2-nonyl-4-oxo-1,3,8-triaza-spiro[4.5]dec-1-ene-8-sulfonyl)-vinyl]-phenyl}-acetamide]
The “cAMP production activity (%)” value of the first is higher: 140% for the first, 121% for the second.

First: Cc1cc(C(=O)N2CC[C@@H](N)C2)cc(C)c1/C=C/S(=O)(=O)N1CCC2(CC1)N=C(c1cccc(OC(F)(F)F)c1)NC2=O [Compound 404, 8-{(E)-2-[4-((R)-3-amino-pyrrolidine-1-carbonyl)-2,6-dimethyl-phenyl]-ethenesulfonyl}-2-(3-trifluoromethoxy-phenyl)-1,3,8-triaza-spiro[4.5]dec-1-en-4-one]
Second: Cc1cc(C(=O)N2CCC(C)(O)CC2)cc(C)c1/C=C/S(=O)(=O)N1CCC2(CC1)N=C(c1cccc(OC(F)(F)C(F)F)c1)NC2=O [Compound 1100, 8-{(E)-2-[4-(4-Hydroxy-4-methyl-piperidine-1-carbonyl)-2,6-dimethyl-phenyl]-ethenesulfonyl}-2-[3-(1,1,2,2-tetrafluoro-ethoxy)-phenyl]-1,3,8-triaza-spiro[4.5]dec-1-en-4-one]
The “cAMP production activity (%)” value of the first is higher: 88% for the first, 76% for the second.

First: O=C(c1ccc(Cl)cc1)N1CCCC(C2=NC3(CCN(S(=O)(=O)c4cccc(Cl)c4)CC3)C(=O)N2)C1 (stereo not drawn) [Compound 425, 8-(3-Chloro-benzenesulfonyl)-2-[1-(4-chloro-benzoyl)-piperidin-3-yl]-1,3,8-triaza-spiro[4.5]dec-1-en-4-one]
Second: O=C(OCc1ccccc1)N1CCCC(C2=NC3(CCN(S(=O)(=O)c4cccc(Cl)c4)CC3)C(=O)N2)C1 (stereo not drawn) [Compound 461, 3-[8-(3-chloro-benzenesulfonyl)-4-oxo-1,3,8-triaza-spiro[4.5]dec-1-en-2-yl]-piperidine-1-carboxylic acid benzyl ester]
The “cAMP production activity (%)” value of the first is lower: 17% for the first, 51% for the second.

First: CO/N=C1\NC(c2cccc(OC(F)(F)F)c2)=NC12CCN(S(=O)(=O)CCc1ccc(C(=O)N(C)C)cc1C)CC2 [Compound 901, 4-{2-[4-[(Z)-methoxyimino]-2-(3-trifluoromethoxy-phenyl)-1,3,8-triaza-spiro[4.5]dec-1-ene-8-sulfonyl]-ethyl}-3,N,N-trimethyl-benzamide]
Second: Cc1cc(C(=O)N2CCC(CO)CC2)cc(C)c1CCS(=O)(=O)N1CCC2(CC1)N=C(c1cccc(OC(F)(F)F)c1)NC2=O [Compound 966, 8-{2-[4-(4-hydroxymethyl-piperidine-1-carbonyl)-2,6-dimethyl-phenyl]-ethanesulfonyl}-2-(3-trifluoromethoxy-phenyl)-1,3,8-triaza-spiro[4.5]dec-1-en-4-one]
The “cAMP production activity (%)” value of the first is lower: 1.9% for the first, 82% for the second.

Going from `CC(=O)Nc1ccc(CCS(=O)(=O)N2CCC3(CC2)N=C([C@H]2CC[C@@H](CC(F)F)CC2)NC3=O)c(C)c1` [Compound 1071, N-[4-(2-{2-[4-(2,2-difluoro-ethyl)-cyclohexyl]-4-oxo-1,3,8-triaza-spiro[4.5]dec-1-ene-8-sulfonyl}-ethyl)-3-methyl-phenyl]-acetamide] to `Cc1cc(N2C(=O)CNC2=O)ccc1CCS(=O)(=O)N1CCC2(CC1)N=C(C1CCC(C(F)(F)F)CC1)NC2=O` (stereo not drawn) [Compound 947, 3-(3-methyl-4-{2-[4-oxo-2-(4-trifluoromethyl-cyclohexyl)-1,3,8-triaza-spiro[4.5]dec-1-ene-8-sulfonyl]-ethyl}-phenyl)-imidazolidine-2,4-dione], the “cAMP production activity (%)” value rises from 60% to 89%.

First: Cc1cc(N2CCN(C(=O)OC(C)(C)C)CC2=O)ccc1/C=C/S(=O)(=O)N1CCC2(CC1)N=C(C1CCC(C)CC1)NC2=O (stereo not drawn) [Compound 578, 4-(3-methyl-4-{(E)-2-[2-(4-methyl-cyclohexyl)-4-oxo-1,3,8-triaza-spiro[4.5]dec-1-ene-8-sulfonyl]-vinyl}-phenyl)-3-oxo-piperazine-1-carboxylic acid tert-butyl ester]
Second: Cc1cc(CC(N)=O)ccc1/C=C/S(=O)(=O)N1CCC2(CC1)N=C(C1CCC(C)CC1)NC2=O (stereo not drawn) [Compound 737, 2-(3-Methyl-4-{(E)-2-[2-(4-methyl-cyclohexyl)-4-oxo-1,3,8-triaza-spiro[4.5]dec-1-ene-8-sulfonyl]-vinyl}-phenyl)-acetamide]
The “cAMP production activity (%)” value of the first is lower: 13% for the first, 96% for the second.

Compared with `N#Cc1c[nH]c2cccc(CCS(=O)(=O)N3CCC4(CC3)N=C(C3CCCCC3)NC4=O)c12` [Compound 646, 4-[2-(2-cyclohexyl-4-oxo-1,3,8-triaza-spiro[4.5]dec-1-ene-8-sulfonyl)-ethyl]-1H-indole-3-carbonitrile], `O=C1NC(C2CCCCC2)=NC12CCN(S(=O)(=O)CCCCCc1cccc3[nH]ccc13)CC2` [Compound 262, 2-cyclohexyl-8-[5-(1H-indol-4-yl)-pentane-1-sulfonyl]-1,3,8-triaza-spiro[4.5]dec-1-en-4-one] is lower in “cAMP production activity (%)” value: 99% for the first, 26% for the second.

First: Cc1onc(-c2ccccc2)c1S(=O)(=O)N1CCC2(CC1)N=C(C1CCCCC1)NC2=O [Compound 52, 2-cyclohexyl-8-(5-methyl-3-phenyl-isoxazole-4-sulfonyl)-1,3,8-triaza-spiro[4.5]dec-1-en-4-one]
Second: COc1cccc(C2=NC3(CCN(S(=O)(=O)c4cccc(Cl)c4)CC3)C(=O)N2)c1 [Compound 5, 8-(3-chloro-benzenesulfonyl)-2-(3-methoxy-phenyl)-1,3,8-triaza-spiro[4.5]dec-1-en-4-one]
The “cAMP production activity (%)” value of the first is higher: 23% for the first, 2.5% for the second.

Going from `COc1c(N(C)C(N)=O)cc(C)c(CCS(=O)(=O)N2CCC3(CC2)N=C([C@H]2CC[C@H](C)CC2)NC3=O)c1C` [Compound 684, 1-(2-methoxy-3,5-dimethyl-4-{2-[2-(4-methyl-cyclohexyl)-4-oxo-1,3,8-triaza-spiro[4.5]dec-1-ene-8-sulfonyl]-ethyl}-phenyl)-1-methyl-urea] to `CCOC(=O)CCCCCCCCCCCC1=NC2(CCN(S(=O)(=O)CCc3c(C)cc(N(C)C(N)=O)cc3C)CC2)C(=O)N1` [Compound 1347, 12-(8-{2-[2,6-dimethyl-4-(1-methyl-ureido)-phenyl]-ethanesulfonyl}-4-oxo-1,3,8-triaza-spiro[4.5]dec-1-en-2-yl)-dodecanoic acid ethyl ester], the “cAMP production activity (%)” value falls from 101% to 87%.

For `CCCCCCCCCC1=NC2(CCN(S(=O)(=O)CCc3ccc(N(CCO)S(C)(=O)=O)cc3C)CC2)C(=O)N1` [Compound 720, N-(2-Hydroxy-ethyl)-N-{3-methyl-4-[2-(2-nonyl-4-oxo-1,3,8-triaza-spiro[4.5]dec-1-ene-8-sulfonyl)-ethyl]-phenyl}-methanesulfonamide], the “cAMP production activity (%)” value was 82%.
